Test results reported in ChEMBL document CHEMBL4680150, “Design, synthesis and biological evaluation of vincamine derivatives as potential pancreatic β-cells protective agents for the treatment of type 2 diabetes mellitus” (Eur J Med Chem, 2020).
Active and inactive are the calls of the source. Unless noted, no cut-off for these calls is given here.

Experiments:
INS1(832/13) [1] = assay: Cytoprotective activity in rat INS-1 832/13 cells assessed as inhibition of STZ-induced apoptosis at 20 uM incubated for 24 hrs by MTT assay relative to control; assay type: functional; parameters: scale not given: the % may be the effect or the level left
INS1(832/13) [2] = assay: Cytoprotective activity in rat INS-1 832/13 cells assessed as inhibition of STZ-induced apoptosis incubated for 24 hrs by MTT assay; assay type: functional, cell-based; conditions: INS-1 832/13, 24 h
INS1(832/13) [3] = assay: Cytoprotective activity against STZ-induced toxicity in rat INS-1 832/13 cells at 20 uM incubated for 24 hrs by MTT assay; assay type: functional, cell-based
INS1(832/13) [4] = assay: Cytoprotective activity against STZ-induced toxicity in rat INS-1 832/13 cells assessed as mass of apoptotic cells at 20 uM by Annexin V-FITC staining based flow cytometric analysis (reference value: 40.8%); assay type: functional
INS-1 832/13 [5] = assay: Activation of AKT in STZ-induced rat INS-1 832/13 cells assessed as increase in Akt phosphorylation at 20 uM after 24 hrs by AlphaLISA assay; conditions: filed as activator
INS-1 832/13 [6] = assay: Activation of AKT in STZ-induced rat INS-1 832/13 cells assessed as increase in Akt phosphorylation at 20 uM after 24 hrs by Western blot analysis; conditions: filed as activator
INS1(832/13) [7] = assay: Cytoprotective activity in rat INS-1 832/13 cells assessed as inhibition of STZ-induced apoptosis at 20 uM incubated for 24 hrs in presence of wortmannin by MTT assay; assay type: functional, cell-based
INS-1 832/13 [8] = assay: Activation of AKT in STZ-induced rat INS-1 832/13 cells assessed as increase in Akt phosphorylation at 20 uM after 24 hrs in presence of wortmannin by Western blot analysis
INS-1 832/13 [9] = assay: Activation of PI3K/Akt signalling pathway in STZ-induced rat INS-1 832/13 cells assessed as increase in phosphorylation of FOX01 at Ser256 residue at 5 to 20 uM after 24 hrs by Western blot analysis; conditions: filed as activator, dose 5-20 µM
INS1(832/13) [10] = assay: Potency index, ratio of vincamine EC50 to test compound EC50 for cytoprotective activity in rat INS-1 832/13 cells assessed as inhibition of STZ-induced apoptosis; assay type: functional
INS1(832/13) [11] = assay: Cytoprotective activity against STZ-induced toxicity in rat INS-1 832/13 cells at 10 uM incubated for 24 hrs by MTT assay; assay type: functional, cell-based
INS1(832/13) [12] = assay: Cytoprotective activity against STZ-induced toxicity in rat INS-1 832/13 cells assessed as mass of apoptotic cells at 5 uM by Annexin V-FITC staining based flow cytometric analysis (reference value: 40.8%); assay type: functional
INS1(832/13) [13] = assay: Cytoprotective activity against STZ-induced toxicity in rat INS-1 832/13 cells assessed as mass of apoptotic cells at 10 uM by Annexin V-FITC staining based flow cytometric analysis (reference value: 40.8%); assay type: functional
INS-1 832/13 [14] = assay: Activation of AKT in STZ-induced rat INS-1 832/13 cells assessed as increase in Akt phosphorylation at 5 to 20 uM after 24 hrs by AlphaLISA assay; conditions: filed as activator, dose 5-20 µM
INS-1 832/13 [15] = assay: Activation of AKT in STZ-induced rat INS-1 832/13 cells assessed as increase in Akt phosphorylation at 5 to 20 uM after 24 hrs by Western blot analysis; conditions: filed as activator, dose 5-20 µM
INS-1 832/13 [16] = assay: Activation of PI3K/Akt signalling pathway in STZ-induced rat INS-1 832/13 cells assessed as increase in phosphorylation of GSK3beta at Ser9 residue at 5 to 20 uM after 24 hrs by Western blot analysis; conditions: filed as activator, dose 5-20 µM
INS-1 832/13 [17] = assay: Activation of PI3K/Akt signalling pathway in STZ-induced rat INS-1 832/13 cells assessed as decrease in caspase 9 protein expression at 5 to 20 uM after 24 hrs by Western blot analysis; conditions: filed as activator, dose 5-20 µM
INS-1 832/13 [18] = assay: Activation of PI3K/Akt signalling pathway in STZ-induced rat INS-1 832/13 cells assessed as decrease in caspase 3 protein expression at 5 to 20 uM after 24 hrs by Western blot analysis; conditions: filed as activator, dose 5-20 µM
INS-1 832/13 [19] = assay: Activation of PI3K/Akt signalling pathway in STZ-induced rat INS-1 832/13 cells assessed as decrease in cleaved-caspase 3 protein expression at 5 to 20 uM after 24 hrs by Western blot analysis; conditions: filed as activator, dose 5-20 µM
INS-1 832/13 [20] = assay: Activation of PI3K/Akt signalling pathway in STZ-induced rat INS-1 832/13 cells assessed as decrease in Bim mRNA expression at 5 to 20 uM after 24 hrs by RT-PCR analysis; conditions: filed as activator, dose 5-20 µM
INS-1 832/13 [21] = assay: Activation of PI3K/Akt signalling pathway in STZ-induced rat INS-1 832/13 cells assessed as decrease in p21 mRNA expression at 5 to 20 uM after 24 hrs by RT-PCR analysis; conditions: filed as activator, dose 5-20 µM
INS1(832/13) [22] = assay: Cytoprotective activity against STZ-induced rat INS-1 832/13 cells assessed as increase in IRS2 protein expression at 5 to 20 uM after 24 hrs Western blot analysis; assay type: functional, cell-based; conditions: dose 5-20 µM
INS1(832/13) [23] = assay: Cytoprotective activity against STZ-induced rat INS-1 832/13 cells assessed as increase in IRS2 mRNA expression at 5 to 20 uM after 24 hrs RT-PCR analysis; assay type: functional, cell-based; conditions: dose 5-20 µM

Question: Which results are given for `CC[C@]12CCCN3CCc4c(n(c5ccccc45)[C@@](O)(C(=O)OC)C1)[C@@H]32` [VINCAMINE]?
Answer: Activity (INS1(832/13) [1]): 63%; EC50 (INS1(832/13) [2]): 11 µM; Activity (INS1(832/13) [3]): Active; Activity (INS1(832/13) [4]): 28.7%; Activity (INS-1 832/13 [5]): Active; Activity (INS-1 832/13 [6]): Active; Activity (INS1(832/13) [7]): inactive; Activity (INS-1 832/13 [8]): inactive

Question: Which Activity (INS-1 832/13 [9]) does the source give for `CCNCC1=C[C@]2(CC)CCCN3CCc4c(n1c1ccccc41)[C@@H]32` here?
Answer: The Activity was “Active”.

Question: What about the Activity (INS1(832/13) [1]) of the same compound?
Answer: Its Activity is “Active”.

Question: What about the EC50 (INS1(832/13) [2]) of the same compound?
Answer: Its EC50 is 0.27 µM.

Question: What about the “Ratio EC50” value (INS1(832/13) [10]) of the same compound?
Answer: The value was 2.

Question: What about the Activity (INS1(832/13) [11]) of the same compound?
Answer: Its Activity is “Active”.

Question: What about the Activity (INS1(832/13) [4]) of the same compound?
Answer: Its Activity is 24.1%.

Question: And the Activity (INS1(832/13) [12])?
Answer: The Activity was 31.3%.

Question: What about the Activity (INS1(832/13) [13]) of the same compound?
Answer: Its Activity is 29.1%.

Question: What about the Activity (INS-1 832/13 [14]) of the same compound?
Answer: The Activity was “Active”.

Question: What about the Activity (INS-1 832/13 [15]) of the same compound?
Answer: Its Activity is “Active”.

Question: What about the Activity (INS1(832/13) [7]) of the same compound?
Answer: The Activity was “inactive”.

Question: And the Activity (INS-1 832/13 [8])?
Answer: Its Activity is “inactive”.

Question: And the Activity (INS-1 832/13 [16])?
Answer: The Activity was “Active”.

Question: What about the Activity (INS-1 832/13 [17]) of the same compound?
Answer: The Activity was “Active”.

Question: And the Activity (INS-1 832/13 [18])?
Answer: The Activity was “Active”.

Question: And the Activity (INS-1 832/13 [19])?
Answer: The Activity was “Active”.

Question: What about the Activity (INS-1 832/13 [20]) of the same compound?
Answer: The Activity was “Active”.

Question: What about the Activity (INS-1 832/13 [21]) of the same compound?
Answer: Its Activity is “Active”.

Question: And the Activity (INS1(832/13) [22])?
Answer: The Activity was “Active”.

Question: And the Activity (INS1(832/13) [23])?
Answer: The Activity was “Active”.
